US11530216B2, “Deuterated colony stimulating factor-1 receptor (CSF-1R) inhibitors” (Genzyme Corporation, priority 2020, dated 2022)

Tests used:
[1] = Human hepatocyte intrinsic clearance; format: in vitro ADME; details: human, hepatocytes
Method: (§1) Incubations were performed in 0.5 million hepatocytes cells/mL at 1 μM concentration of test compound in duplicate with rat, human, dog, monkey, or mouse hepatocytes, and the concentration-time course of test compound depletion was determined after withdrawing samples from the incubation at assay time points followed by liquid chromatography with tandem mass spectrometry analysis. An organic solvent was used to terminate incubations.
(§2) These available known AO substrates along with the test compounds were analyzed using three in vitro systems (pooled human liver cytosol, liver S-9 fractions and human hepatocytes isolated from livers perfused with HTK media). Scaled unbound intrinsic clearances were calculated for the test compounds/new chemical entities and were compared to the in vivo unbound intrinsic clearances of the known AO substrates.

[2] = Caco-2 permeability assay; format: in vitro ADME; details: human; for Papp at 90 min, 20 μM: apical pH 6.5, 90 min
Method: Caco-2 permeability and efflux assays were performed in cell-based permeability model using Caco-2/TC7 cells. For permeability assays, Caco-2/TC7 cells were seeded on to Millipore Millicell 96 and for efflux assays, 24-well plates were used. The plates with cells were ready to use between 21-25 days of culturing. Both permeability and efflux assays were performed using the TECAN automated liquid handling platform. For permeability assays, test compounds were prepared at 20 μM test concentrations in permeability assay buffer (10 mM HEPES in HBSS buffer, pH 6.5) containing 0.5% BSA. Basolateral permeability buffer (pH 7.4) contains 5% BSA. For efflux assays, test compounds were prepared at 1 μM test concentrations in permeability assay buffer (10 mM HEPES in HBSS buffer, pH 7.4) containing 0.5% BSA. For efflux assays, the basolateral permeability buffer (pH 7.4) contained 0.5% BSA. The permeability assay was initiated by adding 20 μM test solution to apical side of plate containing Caco-2/TC7 cells. In the efflux assay, 1 μM test compound was added to an apical compartment for apical to basolateral (A to B) permeability determination. For basolateral to apical (B to A) permeability determination, the test compound was added to the basolateral side. The plate was incubated for 90 min under constant shaking at 37° C. At the end of the incubation period, samples taken were analyzed using high pressure liquid chromatography with tandem mass spectrometry. For each assay, apparent permeability (Papp) and recovery was calculated from mass spectrometry data. For permeability assay, Papp values are reported as numbers×10^−07 cm/s. For efflux assays, the efflux ratio is calculated using Papp (basolateral to apical) to Papp (apical to basolateral), in addition to recovery values.

[3] = Monkey hepatocyte intrinsic clearance; format: in vitro ADME; details: 1 μM, 0.5 million cells/mL
Method: as §1

[4] = Human liver S-9 intrinsic clearance; format: in vitro ADME; details: human; for CLint scaled at 1 μM: s9
Method: as §1, with “1 mg/mL human liver cytosol with high aldehyde oxidase (AO)/xanthine oxidase (XO) activity or 2.5 mg/mL human liver S-9 fraction with high AO/XO activity” for “0.5 million hepatocytes cells/mL”, “duplicate,” for “duplicate with rat, human, dog, monkey, or mouse hepatocytes,”
as §2

[5] = Mouse hepatocyte intrinsic clearance; format: in vitro ADME; details: 1 μM, 0.5 million cells/mL
Method: as §1

[6] = system: C57BL/6 EAE model; assay: MOG-induced EAE model; format: in vivo, mouse; details: 15 mg/kg p.o. BID for 7 days; for mean disease scores: female C57BL/6J mice
Method: Experimental autoimmune encephalomyelitis (EAE) is primarily used as a non-clinical model of autoimmune inflammatory diseases of the CNS, and resembles many aspects of human multiple sclerosis. The myelin oligodendrocyte glycoprotein (MOG)-induced EAE model is ideal for exploring this immune-mediated mechanism of neuroinflammation and demyelination.
Test articles: • MOG35-55 peptide (New England Peptides, lot #BU01787)—250 μg/mouse in 4 mg/mL complete Freund's adjuvant (CFA; Chondrex Inc, Cat #7009, lot #190446) Bordetella pertussis toxin (PTX, Sigma, cat #P7208-5OUG, lot #MKCL 1350)—280 ng/mouse in 200 μL PBS • CSF-1R inhibitors—15 mg/kg • Vehicle—0.5% methylcellulose/0.2% Tween-80 Delivery: • MOG peptide & CFA: subcutaneous injection to 2 sites in the hind flank (100 μL/site). • Bordetella pertussis toxin: i.v. injection of 280 ng/mouse in 200 μL PBS on Day 0 and 2. • CSF1R inhibitor: oral gavage every 12 hours • Vehicle: oral gavage every 12 hours Time points: • Day 0—Administer MOG peptide in CFA and PTX to Groups 1-3 • Day 2—Administer PTX by i.v. to Groups 1-3 • Day 9—Begin daily scoring of mice • Day 11-14—Randomize mice to groups when reach score of 1 and begin treatment • Day ˜18-21—After 7 days of treatment, perfuse mice and euthanize animals.
Mice were clinically assessed daily for signs of paralytic disease and weighed intermittently to document weight loss. At study termination, ½ brain was fixed for histology and brain/liver/plasma were collected for exposure. Spinal cord and whole blood was collected for flow cytometry. Additional plasma aliquots were saved for follow up analysis.
Female C57BL/6J mice were immunized with an emulsion of MOG35-55 peptide (250 μg/mouse) in complete Freund's adjuvant (CFA). […] Following EAE induction, the mice were monitored daily for paralytic symptoms and scored for their clinical presentation using a progressive scoring system (Score 0: no disease; Score 1: flaccid tail; Score 2: hindlimb weakness; Score 3: hindlimb paralysis; Score 4: Front limb weakness or partial paralysis; Score 5: death). […]

[7] = s9, Human Liver S-9 Intrinsic Clearance _1
[8] = s9, Human Liver S-9 Intrinsic Clearance _2

[2H]c1nc2cccnc2n1Cc1cc(OC)c2c(c1)O[C@@H](C)[C@H](c1ccc(OC)nc1)O2 [Compound 6, 3-(((2S,3S)-8-methoxy-2-(6-methoxypyridin-3-yl)-3-methyl-2,3-dihydrobenzo[b][1,4]dioxin-6-yl)methyl)-3H-imidazo[4,5-b]pyridine-2-d]
CLint scaled at 1 μM [1]: 20 mL/min/kg
hepatocyte CLint at 1 μM [1]: 7.88 µL/min/1e6 cells
recovery at 90 min, 20 μM [2]: 73%
Papp at 90 min, 20 μM [2]: 37.7 ×10⁻⁶ cm/s
Monkey Hepatocyte Intrinsic Clearance [3]: 27.2 μL/min/10^7 cells
CLint scaled at 1 μM [4]: 3.6 mL/min/kg
microsomal CLint at 1 μM [4, 7]: < 1.1 µL/min/mg
microsomal CLint at 1 μM [4, 8]: < 1.1 µL/min/mg
Mouse Hepatocyte Intrinsic Clearance [5]: 6.63 μL/min/10^7 cells
paralytic symptoms ([6]; compared with Compound 24): ameliorated paralytic symptoms to a surprisingly greater extent than nondeuterated Compound 24
mean disease scores [6]: significantly mean disease scores

COc1ccc(C2Oc3c(OC)cc(Cn4cnc5cccnc54)cc3O[C@H]2C)cn1 (stereo partly drawn) [Compound 24]
CLint scaled at 1 μM [1]: 32.3 mL/min/kg
hepatocyte CLint at 1 μM [1]: 12.7 µL/min/1e6 cells
recovery at 90 min, 20 μM [2]: 80%
Papp at 90 min, 20 μM [2]: 37.7 ×10⁻⁶ cm/s
Monkey Hepatocyte Intrinsic Clearance [3]: >92 μL/min/10^7 cells
CLint scaled at 1 μM [4]: 9 mL/min/kg
microsomal CLint at 1 μM [4, 7]: 3.06 µL/min/mg
microsomal CLint at 1 μM [4, 8]: 2.76 µL/min/mg
Mouse Hepatocyte Intrinsic Clearance [5]: 9.36 μL/min/10^7 cells
mean disease scores [6]: significantly mean disease scores
